{"source": "patent US8563511B2", "about": "“Treatment of pulmonary hypertension using an agent that inhibits a tissue factor pathway” (University of Rochester, priority 2004, dated 2013)", "key": {"Male Sprague Dawley rats": {"system": "Male Sprague Dawley rats", "assay": "Induction of PAH by MCT after sham surgery or pneumonectomy in young rats", "assay_type": "in vivo, rat", "settings": "for pulmonary pressure (RVSP, mean PA): FIG. 1", "procedure": "All animal studies were approved by the IACUC at the University of Rochester prior to the initiation of any animal experiments. Male Sprague Dawley rats weighing between 200 and 250 g were shaved and then endotracheally intubated with an 18 G angiocatheter after anesthesia with ketamine and xylazine (70 mg/kg ketamine and 50 mg/kg xylazine delivered intraperitoneal in 0.9% saline). Flunixin was administered 0.1 mg/kg SQ at the beginning of the case to provide 24 hours postoperative analgesia. Animals were ventilated (respiratory rate 70-90, adjusted while monitoring the animal to prevent spontaneous respiratory effort) at 10-12 cc/kg (Harvard Apparatus) and the left chest was prepared with Betadine scrub. The fourth or fifth intercostal space was identified, and an incision was made with care to avoid lung damage while ventilation was briefly interrupted. A rib retractor was used to expose the thoracic cavity, and the lung was lifted gently to expose the hilar structures. Two ligaclips (Ektacon LS200, Johnson & Johnson) were applied proximally before the left lung was cut at the distal hilar structure. A polyethylene tube with holes at the end and cut into the sides was inserted through the sixth intercostal space and laid in the thoracic cavity where the left lung had been. Two absorbable sutures were used to approximate the ribs, and then the muscles and subcutaneous tissue were approximated with an additional layer of sutures. Care was taken to carefully seal the thoracostomy tube with tissue so that the hole would close spontaneously when the thoracostomy tube was removed. Suction was applied to the tubing at the earliest possible time once a seal had been achieved (sometimes before the subcutaneous tissues were closed). Antisedan (Orion) was administered 0.2 mg/kg IM, and the skin was closed with 9 mm Autoclips (Stoelting). The animal was taken off the ventilator and monitored for spontaneous respirations while suction was applied to the thoracostomy tube. The rat was required to make significant respiratory effort and begin to right itself on the table before the endotracheal and thoracostomy tubes were removed. […] A 30 to 40% mortality is routinely encountered in the 24 hour perioperative period. For the sham surgery, an incision was made to the chest wall. With great care, ventilation was stopped, the chest was listed with forceps, and a small incision was made in the fourth or fifth intercostal space. If there was any evidence for lung damage, the case was converted to a pneumonectomy. A smaller polyethylene tube was inserted through the same hole and laid between the lung and the chest wall. The ribs were approximated with one or two sutures as appropriate. The remainder of the procedure was identical. The animal was ventilated for several minutes after the chest was closed but before sedation was reversed to make sure that total time under anesthesia was approximately the same as in pneumonectomy cases.\n(§1) One week later, animals were given MCT (dissolved 60 mg/ml in DMSO) as a subcutaneous injection (vehicle animals were treated with the same volume of DMSO alone). They were monitored and allowed ordinary chow and water for 28 days (in the group of animals which were utilized to generate FIG. 2, two of the animals initially treated with pneumonectomy and MCT died spontaneously on days 18 and 23, so the remaining four animals were sacrificed at Day 24).\nExercise capacity was monitored 5 and 10 days after MCT treatment and then more frequently as the disease progressed. Rats were placed on a treadmill (Columbus Instruments) that stimulates them with a mild electric shock when they fail to run. Each assessment lasted for 16 min: 2 min. @ 10 m/min, 4 min @ 15 m/min, 5 min @ 20 m/min, and 5 min @ 25 m/min. The maximum distance run was 305 m. This procedure has been specifically approved by the local IACUC.\nInitially, a grid intensity of 70% maximum and frequency of 2 Hz was used. […]"}, "[1]": {"system": "Pneum/MCT rats (rat model of severe pulmonary arterial hypertension)", "assay": "Treatment of PAH in pneumonectomy + MCT young rat model", "assay_type": "in vivo", "settings": "bosentan 100 mg/kg daily", "procedure": "All animal studies were approved by the IACUC at the University of Rochester prior to the initiation of any animal experiments. Male Sprague Dawley rats weighing between 200 and 250 g were shaved and then endotracheally intubated with an 18 G angiocatheter after anesthesia with ketamine and xylazine (70 mg/kg ketamine and 50 mg/kg xylazine delivered intraperitoneal in 0.9% saline). Flunixin was administered 0.1 mg/kg SQ at the beginning of the case to provide 24 hours postoperative analgesia. […] The animal was taken off the ventilator and monitored for spontaneous respirations while suction was applied to the thoracostomy tube. […]\nas §1\nExercise capacity was monitored 5 and 10 days after MCT treatment and then more frequently as the disease progressed. […]"}, "[2]": {"system": "patients with pulmonary hypertension", "settings": "cited from earlier work"}}, "data": [{"smiles": "C[C@H]1C(=O)O[C@@H]2CCN3CC=C(COC(=O)[C@](C)(O)[C@]1(C)O)[C@H]23", "note": "[MCT, monocrotaline]", "values": [{"measurement": "(RV + S)/LV", "setting": "Male Sprague Dawley rats; MCT after pneumonectomy", "result": "1.8 ± 0.6"}, {"measurement": "(RV + S)/Weight", "setting": "Male Sprague Dawley rats; MCT after pneumonectomy", "result": "2.7 ± 0.3"}, {"measurement": "LV/Weight", "setting": "Male Sprague Dawley rats; MCT after pneumonectomy", "result": "1.6 ± 0.5"}, {"measurement": "pulmonary pressure (RVSP, mean PA)", "setting": "Male Sprague Dawley rats; MCT after pneumonectomy", "result": "near systemic elevations in pulmonary pressure"}, {"measurement": "(RV + S)/LV", "setting": "Male Sprague Dawley rats; MCT after sham surgery", "result": "1.20 ± 0.3"}, {"measurement": "(RV + S)/Weight", "setting": "Male Sprague Dawley rats; MCT after sham surgery", "result": "1.9 ± 0.4"}, {"measurement": "LV/Weight", "setting": "Male Sprague Dawley rats; MCT after sham surgery", "result": "1.6 ± 0.2"}, {"measurement": "pulmonary pressure (RVSP, mean PA)", "setting": "Male Sprague Dawley rats; MCT following sham surgery", "result": "modest PAH"}, {"measurement": "exercise capacity (16 min treadmill protocol)", "setting": "Male Sprague Dawley rats; Pneum/MCT rats, by day 17 after MCT", "result": "unable to complete the 16 min protocol"}, {"measurement": "exercise capacity (16 min treadmill protocol)", "setting": "Male Sprague Dawley rats; Sham/MCT rats", "result": "consistently completed the exercise protocol"}]}, {"smiles": "COc1ccccc1Oc1c(NS(=O)(=O)c2ccc(C(C)(C)C)cc2)nc(-c2ncccn2)nc1OCCO", "note": "[bosentan]", "values": [{"measurement": "PA pressure", "setting": "[1]", "result": "only a modest elevation in PA pressure"}]}, {"smiles": "CC(=O)CC(c1ccccc1)c1c(O)c2ccccc2oc1=O", "note": "(stereo not shown) [warfarin]", "values": [{"measurement": "survival", "setting": "[2]; Kawut et al., patients also on advanced therapies such as prostacyclin", "result": "survival benefit"}, {"measurement": "mortality at 5 years", "setting": "[2]; Rich et al., prospective observational trial", "result": "decreased mortality"}]}]}
